Experiments:
[1] = biological target: T1, human FAAH (Fatty Acid Amide Hydrolase) (Homo sapiens (Human), UniProt O00519); test: FAAH inhibition, human FAAH CHO cell lysate (AAMCA fluorescence); assay type: biochemical
Excerpt: (§1) To assist in assay development stable cell lines for human, murine and rat full length FAAH were developed. […] The full length FAAH was subcloned into the mammalian expression vector, pcDEF.neo, using XbaI and EcoRI restriction sites and used for stable cell line generation.
(§2) The full length murine FAAH was subcloned into the mammalian expression vector, pcDEFneo using either EcoRI (murine) or KpnI and EcoRI (rat) restriction sites. Chinese hamster ovary cells (CHO) were transfected following manufacturers protocol (AMAXA). Forty eight hours post transfection, cells were trypsinized and transferred to 96 well plates in Iscove's DMEM media supplemented with 2 mM Glutamine, 10% fetal calf serum, 1 mg/ml geneticin and HT Supplement (0.1 mM sodium hypoxanthine, 0.016 mM thymidine) in order to isolate single clones. […] Following removal of tissue culture media cells were dislodged following addition of Cellstripper (Mediatech, Inc. Manassas, Va.) and transferred to 96 well black clear bottom assay plate, centrifuged at 1,000 rpm for 3 mins and media removed and replaced with assay buffer (50 mM Tris pH8.0, 1 mM EDTA, 0.1% fatty acid free BSA). The reaction was initiated by addition of fluorescent substrate, AMC Arachidonoyl Amide (Cayman Chemical, Ann Arbor, Mich.) to 1 μM and reaction allowed to proceed for 2 hours at room temperature. Release of fluorescence was monitored in a CytoFluor Multiplate Reader.
CHO cells expressing FAAH were used to prepare either crude cell lysate or microsome fractions. To harvest cells, tissue culture media was decanted, the monolayer washed three times with Ca^++Mg^++ free PBS and cells recovered after 15 min in enzyme free dissociation media (Millipore Corp, Billerica, Mass.). Cells were collected by centrifuging at 2000 rpm for 15 min, and the cell pellet re-suspended with 50 mM HEPES (pH 7.4) containing 1 mM EDTA and the protease inhibitors aprotinin (1 mg/ml) and leupeptin (100 μM). The suspension was sonicated at 4° C. and the cell lysate recovered after centrifuging at 12,000×g (14,600 rpm, SS34 rotor) for 20 min at 4° C. to form a crude pellet of cell debris, nuclei, peroxisomes, lysosomes, and mitochondria; the supernatant or cell lysate was used for FAAH enzyme assay. In some eases, microsomes fractions enriched in FAAH were prepared by centrifuging the cell lysate further at 27,000 rpm (100,000×g) in SW28 rotor for 50 minutes at 4° C. The pellet containing FAAH-enriched microsomes was re-suspend in 50 mM HEPES, (pH 7.4) 1 mM EDTA, and any remaining DNA sheared by passage of material through a 23 gauge needle and aliquots of enzyme were store at −80° C. prior to use.
(§3) Assays are performed on either cell lysate or microsome fractions prepared as described or in whole cell format employing either the fluorescent substrate AAMCA (Cayman chemical, Ann Arbor, Mich.,) or ^3H-anandamide ([ETHANOLAMINE-1-3H] American Radiolabeled Chemicals; 1 mCi/ml). […] AAMCA substrate was used to achieve a final concentration of 1 μM and reaction allowed to proceed at room temperature for 1-3 hours. […] Whole cell assay is conducted with cells harvested after rinsing tissue culture flasks three times with Ca^++Mg^++ free PBS, incubating for 10 min in Enzyme free dissociation media and centrifuging for 5 minutes at 1,000 rpm in table top centrifuge. Cells are resuspended in assay buffer at desired cell number in (4×10^4 cells/assay in 96-well format; 1×10^4 cells/assay in 384-well format) and assayed as described.
Alternatively, assays are performed using anandamide [ethanolamine 1-^3H] (specific activity of 10 Ci/mmol) diluted with cold anandamide to achieve a final assay concentration of 1 μM anandamide (˜50,000 cpm). Enzyme (CHO cell lysate, brain or liver homogenate) is incubated in assay buffer (50 mM Phosphate, pH 8.0, 1 mM EDTA, 200 mM KCl, 0.2% glycerol, 0.1% fatty acid free BSA) with inhibitor at 25° C. for 30 minutes.

[2] = biological target: T1, human FAAH (Fatty Acid Amide Hydrolase); test: FAAH inhibition, human FAAH CHO whole cell format; assay type: cell-based
Excerpt: as §1, §2, §3

T1 sequence (O00519 whole entry): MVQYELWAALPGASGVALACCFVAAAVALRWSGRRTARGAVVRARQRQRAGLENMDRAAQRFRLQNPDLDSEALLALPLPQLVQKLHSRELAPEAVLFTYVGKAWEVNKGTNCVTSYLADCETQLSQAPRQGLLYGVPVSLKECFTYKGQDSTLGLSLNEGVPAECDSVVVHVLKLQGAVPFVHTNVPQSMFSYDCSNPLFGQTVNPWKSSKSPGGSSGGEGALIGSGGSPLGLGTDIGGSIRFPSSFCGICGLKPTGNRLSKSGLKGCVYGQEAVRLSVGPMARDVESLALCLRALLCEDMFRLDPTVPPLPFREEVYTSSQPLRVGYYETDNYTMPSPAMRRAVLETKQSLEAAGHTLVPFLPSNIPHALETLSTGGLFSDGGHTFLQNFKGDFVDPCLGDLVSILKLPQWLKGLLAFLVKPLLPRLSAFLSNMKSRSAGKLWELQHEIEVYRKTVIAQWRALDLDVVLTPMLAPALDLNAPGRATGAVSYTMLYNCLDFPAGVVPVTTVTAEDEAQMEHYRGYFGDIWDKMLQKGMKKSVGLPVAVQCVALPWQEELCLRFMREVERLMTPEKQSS

| Structure (SMILES) | IC50 [1] [µM] | IC50 [2] [µM] |
| --- | --- | --- |
| C[S+]([O-])c1ccc(-c2nc(C3CCOCC3)oc2Sc2ccc(Cl)cn2)cn1 (stereo not shown) [Example A7.2, 5-chloro-2-({4-[6-(methylsulfinyl)pyridin-3-yl]-2-(tetrahydro-2H-pyran-4-yl)-1,3-oxazol-5-yl}sulfanyl)pyridine] | 0.293 | 0.935 |
| C[S+]([O-])c1ccc(-c2nc(C3CCN(C(=O)OC(C)(C)C)CC3)oc2Sc2ccc(Cl)cn2)cc1 (stereo not shown) [Example A7.13, tert-butyl 4-{5-[(5-chloropyridin-2-yl)sulfanyl]-4-[4-(methylsulfinyl)phenyl]-1,3-oxazol-2-yl}piperidine-1-carboxylate] | 0.0675 | 0.771 |
| CC(C)(C)OC(=O)N1CCC(c2nc(-c3ccc(S(C)(=O)=O)cc3)c(Sc3ccc(Cl)cn3)o2)CC1 [Example A7.14, tert-butyl 4-{5-[(5-chloropyridin-2-yl)sulfanyl]-4-[4-(methylsulfonyl)phenyl]-1,3-oxazol-2-yl}piperidine-1-carboxylate] | 0.0653 | 0.443 |
| C[S+]([O-])c1ccc(-c2nc(C3CCNCC3)oc2Sc2ccc(Cl)cn2)cc1 (stereo not shown) [Example A7.15, 4-{5-[(5-Chloropyridin-2-yl)sulfanyl]-4-[4-(methylsulfinyl)phenyl]-1,3-oxazol-2-yl}piperidinium chloride] | 1.42 | ≥ 10 |
| CS(=O)(=O)c1ccc(-c2nc(C3CCNCC3)oc2Sc2ccc(Cl)cn2)cc1 [Example A7.16, 5-chloro-2-({4-[4-(methylsulfonyl)phenyl]-2-(piperidin-4-yl)-1,3-oxazol-5-yl}sulfanyl)pyridine] | 0.925 | ≥ 10 |
| COC(=O)N1CCC(c2nc(-c3ccc([S+](C)[O-])cc3)c(Sc3ccc(Cl)cn3)o2)CC1 (stereo not shown) [Example A7.17, methyl 4-{5-[(5-chloropyridin-2-yl)sulfanyl]-4-[4-(methylsulfinyl)phenyl]-1,3-oxazol-2-yl}piperidine-1-carboxylate] | 0.0751 | 0.547 |
| CC(=O)N1CCC(c2nc(-c3ccc([S+](C)[O-])cc3)c(Sc3ccc(Cl)cn3)o2)CC1 (stereo not shown) [Example A7.18, 1-(4-{5-[(5-Chloropyridin-2-yl)sulfanyl]-4-[4-(methylsulfinyl)phenyl]-1,3-oxazol-2-yl}piperidin-1-yl)ethanone] | 0.839 | 4.42 |
| C[S+]([O-])c1ccc(-c2nc(C3CCN(S(C)(=O)=O)CC3)oc2Sc2ccc(Cl)cn2)cc1 (stereo not shown) [Example A7.19, 5-chloro-2-({4-[4-(methylsulfinyl)phenyl]-2-[1-(methylsulfonyl)piperidin-4-yl]-1,3-oxazol-5-yl}sulfanyl)pyridine] | 0.287 | 3.28 |
| CN1CCC(c2nc(-c3ccc([S+](C)[O-])cc3)c(Sc3ccc(Cl)cn3)o2)CC1 (stereo not shown) [Example A7.20, 5-chloro-2-({2-(1-methylpiperidin-4-yl)-4-[4-(methylsulfinyl)phenyl]-1,3-oxazol-5-yl}sulfanyl)pyridine] | 1.7 | ≥ 10 |
| C[S+]([O-])c1ccc(-c2nc(C3CCN(C(=O)Oc4ccccc4)CC3)oc2Sc2ccc(Cl)cn2)cc1 (stereo not shown) [Example A7.21, phenyl 4-{5-[(5-chloropyridin-2-yl)sulfanyl]-4-[4-(methylsulfinyl)phenyl]-1,3-oxazol-2-yl}piperidine-1-carboxylate] | 0.0259 | 0.124 |
| CC(C)OC(=O)N1CCC(c2nc(-c3ccc([S+](C)[O-])cc3)c(Sc3ccc(Cl)cn3)o2)CC1 (stereo not shown) [Example A7.22, propan-2-yl 4-{5-[(5-chloropyridin-2-yl)sulfanyl]-4-[4-(methylsulfinyl)phenyl]-1,3-oxazol-2-yl}piperidine-1-carboxylate] | 0.0458 | 0.383 |
| Clc1ccc(Sc2oc(C3CCOCC3)nc2-c2cnc3n2CCC3)cc1 [Example B5.25, 3-{5-[(4-chlorophenyl)sulfanyl]-2-(tetrahydro-2H-pyran-4-yl)-1,3-oxazol-4-yl}-6,7-dihydro-5H-pyrrolo[1,2-a]imidazole] | – | 0.205 |
| CN(C(=O)c1ccc(-c2nc(C3CCOCC3)oc2Sc2ccc(Cl)cc2)cc1)C1CCOC1 (stereo not shown) [Example B5.26, 4-{5-[(4-chlorophenyl)sulfanyl]-2-(tetrahydro-2H-pyran-4-yl)-1,3-oxazol-4-yl}-N-methyl-N-(tetrahydrofuran-3-yl)benzamide] | – | 0.506 |
| CN1CCN(c2ccc(-c3nc(C4CCOCC4)oc3Sc3ccc(Cl)cc3)cn2)CC1 [Example B5.27, 1-(5-{5-[(4-chlorophenyl)sulfanyl]-2-(tetrahydro-2H-pyran-4-yl)-1,3-oxazol-4-yl}pyridin-2-yl)-4-methylpiperazine] | – | 0.141 |
| Cc1nnc(-c2cccc(-c3nc(C4CCOCC4)oc3Sc3ccc(Cl)cc3)c2)o1 [Example B5.29, 2-(3-{5-[(4-chlorophenyl)sulfanyl]-2-(tetrahydro-2H-pyran-4-yl)-1,3-oxazol-4-yl}phenyl)-5-methyl-1,3,4-oxadiazole] | – | ≥ 10 |
| O=C(c1ccc(-c2nc(C3CCOCC3)oc2Sc2ccc(Cl)cc2)cc1)N1CCSC1 [Example B5.31, (4-{5-{(4-chlorophenyl)sulfanyl]-2-(tetrahydro-2H-pyran-4-yl)-1,3-oxazol-4-yl}phenyl)(1,3-thiazolidin-3-yl)methanone] | – | 1.34 |
| COC(=O)[C@H]1CC[C@H](c2nc(-c3ccc(C(C)(C)O)nc3)c(Sc3ccc(Cl)cc3)o2)CC1 [Example B5.33, methyl trans-4-{5-[(4-chlorophenyl)sulfanyl]-4-[6-(2-hydroxypropan-2-yl)pyridin-3-yl]-1,3-oxazol-2-yl}cyclohexanecarboxylate] | – | 0.0095 |
| COC(=O)[C@H]1CC[C@@H](c2nc(-c3ccc(C(C)(C)O)nc3)c(Sc3ccc(Cl)cc3)o2)CC1 [Example B5.34, methyl cis-4-{5-[(4-chlorophenyl)sulfanyl]-4-[6-(2-hydroxypropan-2-yl)pyridin-3-yl]-1,3-oxazol-2-yl}cyclohexanecarboxylate] | – | 0.0142 |
| CC(C)(O)c1ccc(-c2nc([C@H]3CC[C@H](CO)CC3)oc2Sc2ccc(Cl)cc2)cn1 [Example B5.35, 2-(5-{5-[(4-chlorophenyl)sulfanyl]-2-[trans-4-(hydroxymethyl)cyclohexyl]-1,3-oxazol-4-yl}pyridin-2-yl)propan-2-ol] | – | 0.00907 |
| CC(C)(O)c1ccc(-c2nc([C@H]3CC[C@@H](CO)CC3)oc2Sc2ccc(Cl)cc2)cn1 [Example B5.36, 2-(5-{5-[(4-chlorophenyl)sulfanyl]-2-[cis-4-(hydroxymethyl)cyclohexyl]-1,3-oxazol-4-yl}pyridin-2-yl)propan-2-ol] | – | 0.0638 |
| CC(O)(CO)c1ccc(-c2nc(C3CCOCC3)oc2Sc2ccc(Cl)cc2)cn1 (stereo not shown) [Example B5.37, 2-(5-{5-[(4-chlorophenyl)sulfanyl]-2-(tetrahydro-2H-pyran-4-yl)-1,3-oxazol-4-yl}pyridin-2-yl)propane-1,2-diol] | – | 0.308 |
| CC(C)(O)c1ccc(-c2nc([C@H]3CC[C@H](C(C)(C)O)CC3)oc2Sc2ccc(Cl)cc2)cn1 [Example B5.38, 2-(5-{5-[(4-chlorophenyl)sulfanyl]-2-[trans-4-(2-hydroxypropan-2-yl)cyclohexyl]-1,3-oxazol-4-yl}pyridin-2-yl)propan-2-ol] | – | 0.185 |
| CCNC(=O)[C@H]1CC[C@H](c2nc(-c3ccc(C(C)(C)O)nc3)c(Sc3ccc(Cl)cc3)o2)CC1 [Example B5.39, trans-4-{5-[(4-chlorophenyl)sulfanyl]-4-[6-(2-hydroxypropan-2-yl)pyridin-3-yl]-1,3-oxazol-2-yl}-N-ethylcyclohexanecarboxamide] | – | 0.0262 |

Reference: patent US9193697B2, “Oxazole derivatives useful as modulators of FAAH” (MERCK SHARP & DOHME CORP., priority 2010, dated 2015)
